Data on 4 compounds can be found in PubChem BioAssay (NCI).

A word on the TGI: it is the concentration giving total growth inhibition. Higher therefore signals less potent growth arrest.

Some test systems named below: RPMI-8226 leukemia; NCI-H460 lung; MDA-MB-231 breast; ACHN renal; EKVX NSCLC; DU-145 prostate; OVCAR-4 ovarian; HOP-62 NSCLC; SK-MEL-2 melanoma; NCI/ADR-RES ovarian; HOP-92 NSCLC; IGROV1 ovarian; SF-295 CNS; A549 NSCLC; BT-549 breast; CAKI-1 renal; SK-MEL-28 melanoma; M14 melanoma; K-562 leukemia; SR leukemia.
Holding throughout (experiment): DTP human tumour cell line panel, 48 h

Molecules are shown by their SMILES.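 These data come from cells grown in 96-well plates and exposed to compound for 48 hours at five concentrations. TGI denotes the concentration required for complete inhibition of growth.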

As to `CCc1cc(=O)n(/C(C)=C/c2ccccc2)n1C`, the TGI in the assay with RPMI-8226 leukemia, in the assay on NCI-H460 lung, in the assay on MDA-MB-231 breast, with ACHN renal, with EKVX NSCLC and with DU-145 prostate was over 100 µM throughout. Also, the concentration for total growth inhibition (TGI) with OVCAR-4 ovarian, with HOP-62 NSCLC, in the assay on SK-MEL-2 melanoma, with NCI/ADR-RES ovarian, in the assay with HOP-92 NSCLC and with IGROV1 ovarian was over 100 µM each time. In addition, the TGI in the assay on SF-295 CNS, with A549 NSCLC, with BT-549 breast, in the assay on CAKI-1 renal, with SK-MEL-28 melanoma and in the assay with M14 melanoma was over 100 µM in each case. In the assay on K-562 leukemia, this compound displayed a TGI of over 100 µM.
As for `CCOC(=O)C1=C(C)NC(=O)N([N+](=O)[O-])C1c1ccccc1C(F)(F)F` (stereo unspecified), the total growth inhibition concentration (TGI) was 72.4 µM in the assay on RPMI-8226 leukemia; over 100 µM in the assay on NCI-H460 lung; over 100 µM in the assay with MDA-MB-231 breast; over 100 µM in the assay with ACHN renal; over 100 µM in the assay on DU-145 prostate; over 100 µM in the assay on OVCAR-4 ovarian. In addition, the total growth inhibition concentration (TGI) in the assay on HOP-62 NSCLC, with SK-MEL-2 melanoma, in the assay with NCI/ADR-RES ovarian, in the assay on HOP-92 NSCLC, in the assay with IGROV1 ovarian and in the assay with SF-295 CNS was over 100 µM throughout. Further, the concentration for total growth inhibition (TGI) with A549 NSCLC, in the assay with BT-549 breast, in the assay on CAKI-1 renal, in the assay with SK-MEL-28 melanoma, with M14 melanoma and with SR leukemia was over 100 µM throughout. The TGI in the assay with K-562 leukemia is over 100 µM.
Turning to `COc1ccc(/C(C)=N/NC(=S)N(C)C)c(O)c1`, the TGI in the assay with RPMI-8226 leukemia, in the assay on NCI-H460 lung, in the assay on MDA-MB-231 breast, in the assay on ACHN renal, in the assay on EKVX NSCLC and with DU-145 prostate was over 100 µM in each case. Besides, the total growth inhibition concentration (TGI) with OVCAR-4 ovarian is 9.48 µM; with HOP-62 NSCLC it was over 100 µM; in the assay with SK-MEL-2 melanoma, over 100 µM; in the assay with HOP-92 NSCLC, 98.8 µM; in the assay with IGROV1 ovarian, 23.2 µM; in the assay on SF-295 CNS it was over 100 µM. The concentration for total growth inhibition (TGI) is over 100 µM in the assay with A549 NSCLC; 66.6 µM with BT-549 breast; 96.6 µM in the assay with CAKI-1 renal; over 100 µM with SK-MEL-28 melanoma; over 100 µM in the assay on M14 melanoma; over 100 µM with SR leukemia.
With `Cc1cc(C)nc(NS(=O)(=O)c2ccc(Nc3c4ccccc4nc4c(C(=O)NCCO)cccc34)cc2)n1`, the TGI in the assay on RPMI-8226 leukemia is 36.5 µM; in the assay with NCI-H460 lung, over 100 µM; with MDA-MB-231 breast, 27.4 µM; with ACHN renal, over 100 µM; in the assay with EKVX NSCLC, over 100 µM; in the assay on DU-145 prostate, over 100 µM. Further, the TGI in the assay on OVCAR-4 ovarian was 97.5 µM; with HOP-62 NSCLC it was 71.3 µM; with SK-MEL-2 melanoma, 35.7 µM; in the assay on NCI/ADR-RES ovarian, over 100 µM; with HOP-92 NSCLC it was over 100 µM; with IGROV1 ovarian, over 100 µM. Moreover, the TGI in the assay on SF-295 CNS was 53.5 µM; in the assay with A549 NSCLC, over 100 µM; in the assay on BT-549 breast, 34 µM; with CAKI-1 renal, 52.7 µM; with SK-MEL-28 melanoma, 41.3 µM; in the assay with M14 melanoma, 65 µM. For the same compound, the TGI in the assay with SR leukemia is 56.1 µM; in the assay with K-562 leukemia, over 100 µM.
